Data: patent publication US8507692B2, “Ester compound and use thereof” (Sumitomo Chemical Company, Limited, priority 2010, dated 2013)

Experiments:
Format in all cases: in vivo
[1] = system: American cockroaches (Periplaneta Americana); assay: Test Example 1: oil solution spray knock-down test on American cockroaches; settings: 0.1% (w/v) oil solution, 1.5 ml sprayed, adult American cockroaches
Method: Zero point one (0.1) part of the compound of the present inventions (1) to (6) was dissolved in 10 parts of isopropyl alcohol and the solution was mixed with 89.9 parts of deodorized kerosene to prepare a 0.1% (w/v) oil solution.
(§1) Six adult American cockroaches (Periplaneta Americana, 3 males and 3 females) were released in a test container (diameter 12.5 cm, 10 cm high, the bottom face is made of 16 mesh metallic wire), the inner face on which butter was applied, and the container was set at the bottom of a test chamber (bottom face: 46 cm×46 cm, height: 70 cm). Each 1.5 ml of the oil solution of the compound of the present invention (1) to (6) was sprayed using a spray gun at a pressure of 0.4 kg/cm^2 from 60 cm higher than the upper face of the container. Thirty seconds after the spraying, the container was pulled out from the chamber. After a prescribed time, the number of knocked-down cockroaches was counted and a knock-down ratio was determined (repeated twice). The knocked-down ratio was calculated by the following equation. Knocked-down ratio(%)=(Number of knocked-down cockroaches/Number of test cockroaches)×100
For comparison, the test was conducted in the same manner as the above, except for using 2,5-dioxo-3-(2-propynyl)imidazolidinylmethyl=(1R)-trans-3-(2-methyl-1-propenyl)-2,2-dimethylcyclopropane carboxylate (compound described in Pesticide Science, 10, p. 291 (1979), hereinafter referred to as the comparative compound (1)) represented by the following formula:
[drawing 41] and 2,5-dioxo-3-(2-propynyl)imidazolidinylmethyl=(1R)-cis-3-((Z)-2-cyano-2-methoxyethenyl)-2,2-dimethylcyclopropane carboxylate (compound described in JP-A-60-16962, hereinafter referred to as the comparative compound (2)) represented by the following formula: […]

[2] = system: common mosquitoes (Culex pipens pallens); assay: Test Example 3: oil solution spray knock-down test on common mosquitoes in glass chamber; settings: 0.025% (w/v) oil solution sprayed into 70 cm cubic glass chamber; adult female common mosquitoes; three minutes after spraying
Method: (§2) Zero point zero two five (0.025) part of the compound of the present invention (1) and (13) was dissolved in 10 parts of isopropyl alcohol, and the solution was mixed with 89.975 parts of deodorized kerosene to prepare a 0.025% (w/v) oil solution.
(§3) Ten adult female common mosquitoes (Culex pipens pallens) were released in a cubic glass chamber having each side of 70 cm. The oil solution of the compound of the present invention (1) and (13) was sprayed into the chamber through a small window on the side of the chamber using a spraying gun at a pressure of 0.9 kg/cm^2. Three minutes after spraying, the number of knocked-down mosquitoes was counted and a knock-down ratio was determined. A knocked-down ratio was calculated by the following equation. Knocked-down ratio(%)=(Number of knocked-down mosquitoes/Number of test mosquitoes)×100

[3] = system: houseflies (Musca domestica); assay: Test Example 4: oil solution spray knock-down test on houseflies in glass chamber; settings: 0.025% (w/v) oil solution, 0.7 ml sprayed into 70 cm cubic glass chamber; adult houseflies; five minutes after spraying
Method: as §2
as §3, with “houseflies (Musca domestica)” for “female common mosquitoes (Culex pipens pallens)”, “cm, and 0.7 ml of the” for “cm. The”, “Five” for “Three”, “flies” for “mosquitoes”, “flies/Number” for “mosquitoes/Number”, “flies)×100” for “mosquitoes)×100”

[4] = system: German cockroaches (Blattella germanica); assay: Test Example 2: oil solution spray knock-down test on German cockroaches; settings: 0.00625% (w/v) oil solution, 1.5 ml sprayed, adult German cockroaches
Method: Zero point zero six two five (0.00625) part of the compound of the present inventions (1) to (6) and (9) to (12) was dissolved in 10 parts of isopropyl alcohol and the solution was mixed with 89.99375 parts of deodorized kerosene to prepare a 0.00625% (w/v) oil solution.
Ten adult German cockroaches (Blattella germanica, 5 males and 5 females) were released in a test container (diameter 8.75 cm, 7.5 cm high, the bottom face is made of 16 mesh metallic wire), the inner face on which butter was applied, and the container was set at the bottom of a test chamber (bottom face: 46 cm×46 cm, height: 70 cm).
Each 1.5 ml of the oil solution of the compound of the present invention (1) to (6) and (9) to (12) was sprayed using a spray gun at a pressure of 0.4 kg/cm^2 from 60 cm higher than the upper face of the container. Thirty seconds after the spraying, the container was pulled out from the chamber. After a prescribed time, the number of knocked-down cockroaches was counted and a knock-down ratio was determined (repeated once). A knocked-down ratio was calculated by the following equation. Knocked-down ratio(%)=(Number of knocked-down cockroaches/Number of test cockroaches)×100 The results (2 minutes after spraying) are shown in Table 2.

[5] = system: American cockroaches (Periplaneta Americana); assay: Test Example 8: oil solution spray knock-down test on American cockroaches, 3 minutes; settings: 0.1% (w/v) oil solution, 1.5 ml sprayed, adult American cockroaches
Method: Zero point one (0.1) part of the compound of the present inventions (1) to (6) and (9) to (12) was dissolved in 10 parts of isopropyl alcohol and the solution was mixed with 89.9 parts of deodorized kerosene to prepare a 0.1% (w/v) oil solution.
as §1, with “(6) and (9) to (12)” for “(6)”, “Three minutes after spraying,” for “After a prescribed time,”

[6] = system: American cockroaches (Periplaneta fuliginosa); assay: Test Example 7: oil solution spray knock-down test on cockroaches (Periplaneta fuliginosa); settings: 0.1% (w/v) oil solution, 1.5 ml sprayed; adult cockroaches (Periplaneta fuliginosa); one minute after spraying
Method: Zero point one (0.1) part of the compound of the present invention (4) was dissolved in 10 parts of isopropyl alcohol and the solution was mixed with 89.9 parts of deodorized kerosene to prepare a 0.1% (w/v) oil solution.
as §1, with “fuliginosa,” for “Americana,”, “One point five (1.5)” for “Each 1.5”, “(4)” for “(1) to (6)”, “One minutes after spraying,” for “After a prescribed time,”, “cockroaches)×100 The knocked-down ratio of the compound of the present invention (4) was 100%.” for “cockroaches)×100”

Row | SMILES | Knock-down ratio (%) 2 minutes after spraying [1] | Knocked-down ratio [2] | Knocked-down ratio [3] | Knock-down ratio (%) 2 minutes after spraying [4] | Knock-down ratio (%) 3 minutes after spraying [5] | Knocked-down ratio [6]
1 | C#CCN1CC(=O)N(COC(=O)[C@@H]2[C@@H](C=C(C#N)SC)C2(C)C)C1=O (relative stereo) [compound of the present invention (1), 2,5-dioxo-3-(2-propynyl)imidazolidinylmethyl=(1R)-trans-3-[(1EZ)-2-cyano-2-(methylthio)ethenyl]-2,2-dimethylcyclopropane carboxylate] | 100% | 100% | 100% |  |  | 
2 | C#CCN1CC(=O)N(COC(=O)[C@@H]2[C@@H](C=C(C#N)SC(C)C)C2(C)C)C1=O [compound of the present invention (6), 2,5-dioxo-3-(2-propynyl)imidazolidinylmethyl=(1R)-trans-3-[(1EZ)-2-cyano-2-(isopropylthio)ethenyl]-2,2-dimethylcyclopropane carboxylate] | 92% |  |  | 100% | 100% | 
3 | C#CCN1CC(=O)N(COC(=O)[C@@H]2[C@@H](C=C(C#N)SCCC)C2(C)C)C1=O [compound of the present invention (3), 2,5-dioxo-3-(2-propynyl)imidazolidinylmethyl=(1R)-trans-3-[(1EZ)-2-cyano-2-(propylthio)ethenyl]-2,2-dimethylcyclopropane carboxylate] | 100% |  |  | 100% | 100% | 
4 | C#CCN1CC(=O)N(COC(=O)[C@@H]2[C@@H](/C=C(\C#N)SCC)C2(C)C)C1=O [compound of the present invention (13), 2,5-dioxo-3-(2-propynyl)imidazolidinylmethyl=(1R)-trans-3-[(1E)-2-cyano-2-(ethylthio)ethenyl]-2,2-dimethylcyclopropane carboxylate] |  | 100% | 100% | 100% | 100% | 
5 | C#CCN1CC(=O)N(COC(=O)[C@@H]2[C@@H](C=C(C#N)SCC)C2(C)C)C1=O (relative stereo) [compound of the present invention (9), 2,5-dioxo-3-(2-propynyl) imidazolidinylmethyl=(1R)-trans-3-[(1EZ)-2-cyano-2-(ethylthio)ethenyl]-2,2-dimethylcyclopropane carboxylate] |  |  |  | 100% | 100% | 
6 | C#CCN1CC(=O)N(COC(=O)[C@@H]2[C@@H](C=C(C#N)SC)C2(C)C)C1=O (relative stereo) [compound of the present invention (10), 2,5-dioxo-3-(2-propynyl)imidazolidinylmethyl=(1R)-trans-3-[(1EZ)-2-cyano-2-(methylthio)ethenyl]-2,2-dimethylcyclopropane carboxylate] |  |  |  | 100% | 100% | 
7 | C#CCN1CC(=O)N(COC(=O)[C@@H]2[C@@H](/C=C(\C#N)SC)C2(C)C)C1=O [compound of the present invention (4), 2,5-dioxo-3-(2-propynyl)imidazolidinylmethyl=(1R)-trans-3-[(1E)-2-cyano-2-(methylthio)ethenyl]-2,2-dimethylcyclopropane carboxylate] | 100% |  |  | 100% | 100% | 100%
8 | C#CCN1CC(=O)N(COC(=O)[C@@H]2[C@@H](C=C(C#N)SCCCC)C2(C)C)C1=O [compound of the present invention (5), 2,5-dioxo-3-(2-propynyl)imidazolidinylmethyl=(1R)-trans-3-[(1EZ)-2-cyano-2-(butylthio)ethenyl]-2,2-dimethylcyclopropane carboxylate] | 83% |  |  | 100% | 100% | 
9 | C#CCN1CC(=O)N(COC(=O)[C@@H]2[C@@H](C=C(C)C)C2(C)C)C1=O [comparative compound (1), 2,5-dioxo-3-(2-propynyl)imidazolidinylmethyl=(1R)-trans-3-(2-methyl-1-propenyl)-2,2-dimethylcyclopropane carboxylate, reference compound] | 58% |  |  |  |  | 
10 | C#CCN1CC(=O)N(COC(=O)[C@@H]2[C@H](/C=C(/C#N)OC)C2(C)C)C1=O [comparative compound (2), 2,5-dioxo-3-(2-propynyl)imidazolidinylmethyl=(1R)-cis-3-((Z)-2-cyano-2-methoxyethenyl)-2,2-dimethylcyclopropane carboxylate, reference compound] | 42% |  |  |  |  | 
11 | C#CCN1CC(=O)N(COC(=O)[C@@H]2[C@@H](C=C(C#N)SCC)C2(C)C)C1=O (relative stereo) [compound of the present invention (2), 2,5-dioxo-3-(2-propynyl)imidazolidinylmethyl=(1R)-trans-3-[(1EZ)-2-cyano-2-(ethylthio)ethenyl]-2,2-dimethylcyclopropane carboxylate] | 100% |  |  |  |  | 
